How the values were obtained:
[1] = Long-term stability in spiked pooled human plasma
[2] = Short-term stability in spiked pooled human plasma (bench-top, 4 °C, 56 °C)
[3] = parameters: method as in supplement references [1-55] as printed per drug; settings: minimum steady-state blood plasma concentration after multiple dose administration; ref supplement references [1-55] per drug; cited from earlier work
[4] = Autosampler stability of ready for injection samples; assay type: physicochemical, human
[5] = Freeze-thaw stability in spiked pooled human plasma; assay type: physicochemical

CC1(C)CCC(CN2CCN(c3ccc(C(=O)NS(=O)(=O)c4ccc(NCC5CCOCC5)c([N+](=O)[O-])c4)c(Oc4cnc5[nH]ccc5c4)c3)CC2)=C(c2ccc(Cl)cc2)C1 [Venetoclax]
Long-term stability, 1 month, -20°C Accuracy [%] ([1]; validation standard 2xLLOV): 102.9%
Long-term stability, 1 month, -80°C Accuracy [%] ([1]; validation standard 2xLLOV): 104.0%
Long-term stability, 2 month, -20°C Accuracy [%] ([1]; validation standard 2xLLOV): 104.9%
Long-term stability, 2 month, -80°C Accuracy [%] ([1]; validation standard 2xLLOV): 111.9%
Long-term stability, 3 month, -20°C Accuracy [%] ([1]; validation standard 2xLLOV): 85.1%
Long-term stability, 3 month, -80°C Accuracy [%] ([1]; validation standard 2xLLOV): 101.9%
Long-term stability, 6 weeks, 4°C, without daylight Accuracy [%] ([1]; validation standard 2xLLOV): 99.8%
Long-term stability, 1 month, -20°C Accuracy [%] ([1]; validation standard LLOV): 111.0%
Long-term stability, 1 month, -80°C Accuracy [%] ([1]; validation standard LLOV): 109.1%
Long-term stability, 2 month, -20°C Accuracy [%] ([1]; validation standard LLOV): 105.5%
Long-term stability, 2 month, -80°C Accuracy [%] ([1]; validation standard LLOV): 115.7%
Long-term stability, 3 month, -20°C Accuracy [%] ([1]; validation standard LLOV): 101.9%
Long-term stability, 3 month, -80°C Accuracy [%] ([1]; validation standard LLOV): 99.3%
Long-term stability, 6 weeks, 4°C, without daylight Accuracy [%] ([1]; validation standard LLOV): 92.7%
Long-term stability, 1 month, -20°C Accuracy [%] ([1]; validation standard MOV): 99.9%
Long-term stability, 1 month, -80°C Accuracy [%] ([1]; validation standard MOV): 103.6%
Long-term stability, 2 month, -20°C Accuracy [%] ([1]; validation standard MOV): 109.3%
Long-term stability, 2 month, -80°C Accuracy [%] ([1]; validation standard MOV): 110.0%
Long-term stability, 3 month, -20°C Accuracy [%] ([1]; validation standard MOV): 100.0%
Long-term stability, 3 month, -80°C Accuracy [%] ([1]; validation standard MOV): 99.6%
Long-term stability, 6 weeks, 4°C, without daylight Accuracy [%] ([1]; validation standard MOV): 99.5%
Long-term stability, 1 month, -20°C Accuracy [%] ([1]; validation standard ULOV): 108.0%
Long-term stability, 1 month, -80°C Accuracy [%] ([1]; validation standard ULOV): 102.7%
Long-term stability, 2 month, -20°C Accuracy [%] ([1]; validation standard ULOV): 112.4%
Long-term stability, 2 month, -80°C Accuracy [%] ([1]; validation standard ULOV): 114.0%
Long-term stability, 3 month, -20°C Accuracy [%] ([1]; validation standard ULOV): 92.9%
Long-term stability, 3 month, -80°C Accuracy [%] ([1]; validation standard ULOV): 102.2%
Long-term stability, 6 weeks, 4°C, without daylight Accuracy [%] ([1]; validation standard ULOV): 95.2%
Short-time stability (1h, 56°C) Accuracy [%] ([2]; validation standard 2xLLOV): 34.5%
Short-time stability (24h, 4°C, without daylight) Accuracy [%] ([2]; validation standard 2xLLOV): 102.9%
Short-time stability (24h, RT, with daylight) Accuracy [%] ([2]; validation standard 2xLLOV): 98.6%
Short-time stability (24h, RT, without daylight) Accuracy [%] ([2]; validation standard 2xLLOV): 95.7%
Short-time stability (24h, 4°C, without daylight) Accuracy [%] ([2]; validation standard LLOV): 88.8%
Short-time stability (24h, RT, with daylight) Accuracy [%] ([2]; validation standard LLOV): 112.5%
Short-time stability (24h, RT, without daylight) Accuracy [%] ([2]; validation standard LLOV): 102.7%
Short-time stability (1h, 56°C) Accuracy [%] ([2]; validation standard MOV): 26.4%
Short-time stability (24h, 4°C, without daylight) Accuracy [%] ([2]; validation standard MOV): 100.5%
Short-time stability (24h, RT, with daylight) Accuracy [%] ([2]; validation standard MOV): 96.8%
Short-time stability (24h, RT, without daylight) Accuracy [%] ([2]; validation standard MOV): 98.0%
Short-time stability (1h, 56°C) Accuracy [%] ([2]; validation standard ULOV): 22.4%
Short-time stability (24h, 4°C, without daylight) Accuracy [%] ([2]; validation standard ULOV): 99.7%
Short-time stability (24h, RT, with daylight) Accuracy [%] ([2]; validation standard ULOV): 94.1%
Short-time stability (24h, RT, without daylight) Accuracy [%] ([2]; validation standard ULOV): 92.7%
cmin [3]: 520 ng/mL
Autosampler (24h, 4°C) Accuracy [%] ([4]; validation standard 2xLLOV): 106.9%
Autosampler (72h, 4°C) Accuracy [%] ([4]; validation standard 2xLLOV): 104.7%
Autosampler (24h, 4°C) Accuracy [%] ([4]; validation standard LLOV): 106.3%
Autosampler (72h, 4°C) Accuracy [%] ([4]; validation standard LLOV): 103.3%
Autosampler (24h, 4°C) Accuracy [%] ([4]; validation standard MOV): 100.0%
Autosampler (72h, 4°C) Accuracy [%] ([4]; validation standard MOV): 102.3%
Autosampler (24h, 4°C) Accuracy [%] ([4]; validation standard ULOV): 103.7%
Autosampler (72h, 4°C) Accuracy [%] ([4]; validation standard ULOV): 102.7%
Freeze-Thaw Accuracy [%] ([5]; validation standard 2xLLOV): 102.4%
Freeze-Thaw Accuracy [%] ([5]; validation standard LLOV): 105.4%
Freeze-Thaw Accuracy [%] ([5]; validation standard MOV): 97.8%
Freeze-Thaw Accuracy [%] ([5]; validation standard ULOV): 101.9%

— paper PMC8699473, “An Easily Expandable Multi-Drug LC-MS Assay for the Simultaneous Quantification of 57 Oral Antitumor Drugs in Human Plasma” (Cancers, 2021)
